The values below are quoted from earlier work in article PMC4163017 (ChemMedChem, 2014).

Values joined by “and” are separate entries in the source; they are usually repeats but may differ in a detail not shown here. Equal entries are not always repeated. Where two headings read alike, the source gives them in different places. A value given as a limit tells only on which side of the number the result lay.

Data set [1] has as its target IRES SLIIb RNA. As to conditions: read-out: KD (dissociation constant); free peptide GGHYrFK-amide; ref [4].
The test system of data set [2] is ET (luc-ubi-neo/ET) Huh7 human hepatoma cells. As to conditions: 72 h, CytoTox-1, previously reported, ref [4].
The test system of data set [3] is HCV RNA replicon in ET (luc-ubi-neo/ET) Huh7 cells. Conditions: HCV cellular replicon assay; ref [4]. (In general: In antiviral work, replicon cells carry a viral genome segment that copies itself.)
Data set [4] relates to 5'-fluorescein-labeled IRES SLIIb RNA. Conditions: ref [4].
The mark [5] stands for this setting: fixed catalyst concentration with varying [RNA].

For the substance Cu-GGHYrFK-amide [1-Cu], the Kd in data set [1] was 44 ± 2 nM. For the same substance, the “Cytotoxicity TC50” value in data set [2] is given as “greater than 100 µM”. Moreover, the “Cytotoxicity TC50” value in data set [2] (listed as [GGHYrFK-amide]-Cu^2+, 1-Cu) is over 100000 nM. Also, the “activity in combination with recombinant interferon alpha-2b” value in data set [3] was “additive to slightly synergic activity”. Also, in data set [4] (setting [5]), the Km is 0.85 ± 0.09 µM; the kcat was 0.00883 s⁻¹ and 0.00883 ± 0.00033 s⁻¹; the kcat/KM is 10300 M⁻¹ s⁻¹. Further, the “Turnover Number” value in data set [4] is on record as 32.
GGHYrFK-amide: in data set [1], the dissociation constant (Kd) was 44 nM.

The term Kd denotes the free concentration of one partner at which half of the binding sites on the other are occupied at equilibrium, for simple one-to-one binding. As a reminder, the Km is the substrate concentration at which the rate is half of its maximum. By kcat is commonly meant the number of substrate molecules converted per active site and unit of time at saturation. What is called kcat/KM is the second-order rate constant that governs catalysis at low substrate concentration.
